Data on one compound can be found in patent US20140066657A1, “DOSAGE REGIMEN FOR A S1P RECEPTOR AGONIST” (Novartis AG, priority 2008, published 2014).

Each structure is given as a SMILES string.

Data set [1] deals with healthy subjects. Put plainly: Double-blind, placebo-controlled dose titration clinical study; heart rate by continuous telemetry and Holter. In kind it is in vivo, human. The procedure:
A single-center, double-blind, placebo-controlled, dose titration, once-daily, multiple-oral-dose clinical study in healthy subjects was conducted to evaluate the effect of a dosage regimen of FTY720 according to the present invention. A total of 36 subjects were randomly assigned to one of the three groups. Each subject participated in a screening period of maximal 21 days, a baseline period (Day −1), a 9-day dose-administration period, and clinical study completion assessments on Day 10. Subjects were assigned to one of the three groups (dose titration regimen group, placebo Control group, or active control group) and received the once daily dose in a double-blinded manner (Table 1). In the dose titration group, increasing once daily doses of Compound A (FTY720), starting at 0.125 mg o.d. and ending at the maximal therapeutic dose of 1.25 mg o.d. were administered on days 1 to 9 of the study according to the schedule shown in Table 1 below. The placebo control group received placebo through out the duration of the study and the active control group received a once daily dose of 1.25 mg of FTY720 on days 1 to 9. [table] On Day −1 (baseline), subjects will undergo baseline assessments including 24 hour holter monitoring and telemetry assessments. Pharmacodynamic and safety assessments are performed up to 24 hours post last dose. Heart rate is monitored via telemetry on Day −1 through Day 10, 24 hour after the last dosing. Heart rhythm is assessed via 24 hr continuous holter monitoring on Day −1, Day 1, and Day 9. For each dosing for each subject, the drug is administered as closely as practically possible to the time administered on Day −1. Safety assessments includes physical examinations, vital signs and body measurements, 12-lead ECG evaluations, standard clinical laboratory evaluations hematology, blood chemistry, urinalysis, adverse event and serious adverse event monitoring. Systolic and diastolic blood pressure and pulse are measured after the subject has rested quietly in the sitting position for at least 3 minutes. Blood pressure is measured at the same arm on each occasion. Standard 12-lead ECGs are recorded at Screening, baseline, 4 hours post-dose on Day 1 and Day 8, and at Study Completion. The variables recorded are: date and time of ECG, heart rate. PR interval, QT interval (uncorrected), QTcB, QRS duration. The overall interpretation is collected with a Yes/No statement to confirm if any clinically relevant abnormalities are present, which needs to be specified further. Subjects remain on continuous telemetry, starting before breakfast on Day −1 and proceeding throughout the administration period up to Day 10 (24 hour after the last dose). Over this ten day duration of continuous heart rate collection for each subject, one heart rate value is obtained every minute (‘minute unit heart rate’), representing the average heart rate value over that minute. The heart rate database for each subject contains approximately 14,400 data points (10 days×24 hr×60 min). 24-hour continuous Holter-ECG data are captured via a digital Holter monitor (12-lead, on Days −1, 1, 6, and 8), and transferred for interpretation and reporting. Hotter monitoring starts approximately at 7:00 and the time of dose administration is regarded as the time “0 hours'. Holter “cuts” are derived from the dataset at 1 hour intervals starting from Day −1 and continuing for 24 hours or the end of the cleaned Hotter monitoring dataset. Cardiac conduction intervals: arrhythmia monitoring includes the frequency and duration of sinus pauses (>2 sec and >3 sec) and atrio-ventricular blocks. Frequency and duration of atrial and ventricular ectopy and sinus rhythm are also recorded. The daily chronotropic effect is defined as the percent decrease in HRmin (minimum heart rate) between two consecutive days. It is calculated on days 1 to 9.

Data set [2] deals with healthy subjects. To be noted: administration of 1.25 mg; cited from earlier work.
The subject of a further data set is multiple sclerosis. The settings on record: humans; Mehling et al. 2008, Kappos et al. 2006; cited from earlier work.
[3] abbreviates: FTY720 1.25 mg once daily treatment group (active control), oral, healthy subjects.

In the case of `CCCCCCCCc1ccc(CCC(N)(CO)CO)cc1.Cl` [FTY720, 2-amino-2-[2-(4-octylphenyl)ethyl]propane-1,3-diol], in the data set with healthy subjects [1] (setting [3]), the “additional decrease in heart rate (daily average) from Day 1 to Day 2” value was “approximately 3 BPM” and the “decrease in heart rate (daily average) from Day -1 to Day 1” value was “approximately 8 BPM”. Further, in the data set with healthy subjects [1] (FTY720 titration group (0.125/0.25/0.5/1.25 mg o.d.), over the eight day course of the dose titration), the “gradual decrease in heart rate per day” value is reported as 1-2 BPM per day. Also, the “dip in heart rate on initiation of 1.25 mg compared to the preceding days” value with healthy subjects [1] (FTY720 titration group, initiation of 1.25 mg on Day 8) is on record as “does not result in dip in heart rate”. Moreover, the “daily minimum heart rates during the course of the study” value with healthy subjects [1] (dose titration regimen compared with the FTY720 1.25 mg group) is listed as “improved daily minimum heart rates”. Also, the “negative chronotropic effect seen on Day 1 of treatment initiation” value with healthy subjects [1] (dose titration regimen versus 1.25 mg o.d. from Day 1) is “attenuates the negative chronotropic effect”. Moreover, the “decrease in heart rate” value with healthy subjects [2] is given as “approximately 8 beats/min (BPM)”. Also, the “efficacy in the treatment of multiple sclerosis” value with multiple sclerosis was “has been demonstrated in humans”.
